Measurements from ChEMBL document CHEMBL3351595, “Cyclic acyl guanidines bearing carbamate moieties allow potent and dirigible cholinesterase inhibition of either acetyl- or butyrylcholinesterase” (Bioorg Med Chem, 2014).
Calls of active or inactive are those of the source. The calls are words filed in the database; no cut-off is given here.

Tests used:
Acetylcholinesterase = Acetylcholinesterase (Electrophorus electricus, UniProt O42275); assay: Inhibition of electric eel AChE using ATC iodide substrate by DTNB based assay
Cholinesterase = Cholinesterase (Equus caballus, UniProt P81908); assay: Inhibition of equine serum BChE using ATC iodide substrate by DTNB based assay
[1] = Selectivity index, ratio of IC50 for electric eel AChE to IC50 for quine serum BChE
[2] = biological target: Acetylcholinesterase (Electrophorus electricus) (UniProt O42275); assay: Inhibition of electric eel AChE at 50 uM using ATC iodide substrate by DTNB based assay
[3] = biological target: Cholinesterase (Equus caballus) (UniProt P81908); assay: Inhibition of equine serum BChE at 50 uM using ATC iodide substrate by DTNB based assay
HT-22 [4] = assay: Toxicity against mouse HT22 cells assessed as reduction in cell viability at 1 to 25 uM by MTT assay; format: cell-based; conditions: ht-22, 25 µM
HT-22 [5] = assay: Neuroprotective activity in mouse HT22 cells assessed as reduction in glutamate-induced cytotoxicity at 5 to 25 uM by MTT assay; format: functional, cell-based
[6] = Antioxidant activity assessed as AAPH-induced peroxyl radicals scavenging activity by measuring Trolox equivalents by oxygen radical absorbance capacity-fluorescein assay; format: physicochemical
HT-22 [7] = assay: Toxicity against mouse HT22 cells assessed as reduction in cell viability at 25 uM by MTT assay; format: cell-based; conditions: ht-22, 25 µM
[8] = biological target: Cholinesterase (Equus caballus) (UniProt P81908); assay: Inhibition of equine serum BChE at 100 uM using ATC iodide substrate by DTNB based assay
HT-22 [9] = assay: Toxicity against mouse HT22 cells assessed as reduction in cell viability at 5 uM by MTT assay; format: cell-based; conditions: ht-22, 5 µM
HT-22 [10] = assay: Neuroprotective activity in mouse HT22 cells assessed as reduction in glutamate-induced cytotoxicity at 1 to 25 uM by MTT assay; format: functional, cell-based
HT-22 [11] = assay: Neuroprotective activity in mouse HT22 cells assessed as reduction in glutamate-induced cytotoxicity at 10 to 25 uM by MTT assay; format: functional, cell-based
HT-22 [12] = assay: Neuroprotective activity in mouse HT22 cells assessed as reduction in glutamate-induced cytotoxicity at 25 uM by MTT assay; format: functional, cell-based
[13] = biological target: Acetylcholinesterase (Electrophorus electricus) (UniProt O42275); assay: Inhibition of electric eel AChE at 100 uM using ATC iodide substrate by DTNB based assay
[14] = biological target: Cholinesterase (Equus caballus) (UniProt P81908); assay: Inhibition of equine serum BChE assessed as rate constant of carbamoyl-enzyme formation pre-incubated for 80 mins by enzyme kinetic assay
[15] = biological target: Cholinesterase (Equus caballus) (UniProt P81908); assay: Time dependent inhibition of equine serum BChE at 5 to 100 nM; conditions: TDE = time-dependent effect
[16] = biological target: Cholinesterase (Equus caballus) (UniProt P81908); assay: Inhibition of equine serum BChE assessed as rate constant of carbamoyl-enzyme formation pre-incubated for 2 to 20 mins by enzyme kinetic assay
[17] = biological target: Cholinesterase (Equus caballus) (UniProt P81908); assay: Inhibition of equine serum BChE assessed as stability constant of inhibitor-enzyme complex pre-incubated for 2 to 20 mins by enzyme kinetic assay
[18] = biological target: Acetylcholinesterase (Electrophorus electricus) (UniProt O42275); assay: Inhibition of electric eel AChE assessed as stability constant of inhibitor-enzyme complex pre-incubated for 2 to 20 mins by enzyme kinetic assay
[19] = biological target: Acetylcholinesterase (Electrophorus electricus) (UniProt O42275); assay: Inhibition of electric eel AChE assessed as rate constant of carbamoyl-enzyme formation pre-incubated for 2 to 20 mins by enzyme kinetic assay
[20] = biological target: Acetylcholinesterase (Homo sapiens) (UniProt P22303); assay: Inhibition of human erythrocyte AChE pre-incubated for 20 mins by enzyme kinetic assay
[21] = biological target: Cholinesterase (Equus caballus) (UniProt P81908); assay: Time dependent inhibition of equine serum BChE at 25 to 250 nM; conditions: TDE = time-dependent effect
[22] = biological target: Acetylcholinesterase (Homo sapiens) (UniProt P22303); assay: Inhibition of human erythrocyte AChE pre-incubated for 2 mins by enzyme kinetic assay

Chain of Acetylcholinesterase (O42275 whole entry): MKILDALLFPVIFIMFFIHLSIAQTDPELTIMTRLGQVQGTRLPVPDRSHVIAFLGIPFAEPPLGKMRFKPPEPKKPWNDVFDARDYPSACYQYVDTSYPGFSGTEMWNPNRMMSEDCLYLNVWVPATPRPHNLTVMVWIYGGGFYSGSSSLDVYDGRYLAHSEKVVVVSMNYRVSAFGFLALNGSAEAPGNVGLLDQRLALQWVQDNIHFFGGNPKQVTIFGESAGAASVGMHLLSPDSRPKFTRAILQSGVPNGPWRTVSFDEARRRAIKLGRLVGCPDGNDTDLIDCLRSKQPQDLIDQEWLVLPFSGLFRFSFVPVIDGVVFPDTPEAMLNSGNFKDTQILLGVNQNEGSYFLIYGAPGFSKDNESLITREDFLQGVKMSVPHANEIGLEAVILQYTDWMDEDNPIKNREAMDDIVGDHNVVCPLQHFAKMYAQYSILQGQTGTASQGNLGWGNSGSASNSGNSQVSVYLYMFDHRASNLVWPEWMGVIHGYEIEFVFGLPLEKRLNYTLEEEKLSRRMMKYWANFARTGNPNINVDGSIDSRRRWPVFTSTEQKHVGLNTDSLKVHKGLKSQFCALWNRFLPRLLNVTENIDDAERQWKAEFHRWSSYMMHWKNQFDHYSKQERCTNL
Chain of Cholinesterase (P81908 whole entry): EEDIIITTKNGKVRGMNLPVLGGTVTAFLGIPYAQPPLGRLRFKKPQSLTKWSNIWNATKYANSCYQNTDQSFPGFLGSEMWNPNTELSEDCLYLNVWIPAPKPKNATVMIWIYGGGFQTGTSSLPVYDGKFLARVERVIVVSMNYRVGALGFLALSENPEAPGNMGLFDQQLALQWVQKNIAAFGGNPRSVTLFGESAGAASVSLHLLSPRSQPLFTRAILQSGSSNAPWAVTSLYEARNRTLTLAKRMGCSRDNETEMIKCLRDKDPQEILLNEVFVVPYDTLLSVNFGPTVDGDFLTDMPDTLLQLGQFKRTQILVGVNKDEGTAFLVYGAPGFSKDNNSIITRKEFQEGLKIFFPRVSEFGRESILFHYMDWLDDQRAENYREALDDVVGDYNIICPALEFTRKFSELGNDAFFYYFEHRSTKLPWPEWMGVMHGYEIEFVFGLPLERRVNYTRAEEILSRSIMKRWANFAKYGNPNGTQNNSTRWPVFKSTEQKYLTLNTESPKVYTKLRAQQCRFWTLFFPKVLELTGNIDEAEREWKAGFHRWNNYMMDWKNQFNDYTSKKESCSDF
Chain of Cholinesterase (Equus caballus) (P81908 whole entry): as above
Chain of Acetylcholinesterase (Electrophorus electricus) (O42275 24-633 limits assumed): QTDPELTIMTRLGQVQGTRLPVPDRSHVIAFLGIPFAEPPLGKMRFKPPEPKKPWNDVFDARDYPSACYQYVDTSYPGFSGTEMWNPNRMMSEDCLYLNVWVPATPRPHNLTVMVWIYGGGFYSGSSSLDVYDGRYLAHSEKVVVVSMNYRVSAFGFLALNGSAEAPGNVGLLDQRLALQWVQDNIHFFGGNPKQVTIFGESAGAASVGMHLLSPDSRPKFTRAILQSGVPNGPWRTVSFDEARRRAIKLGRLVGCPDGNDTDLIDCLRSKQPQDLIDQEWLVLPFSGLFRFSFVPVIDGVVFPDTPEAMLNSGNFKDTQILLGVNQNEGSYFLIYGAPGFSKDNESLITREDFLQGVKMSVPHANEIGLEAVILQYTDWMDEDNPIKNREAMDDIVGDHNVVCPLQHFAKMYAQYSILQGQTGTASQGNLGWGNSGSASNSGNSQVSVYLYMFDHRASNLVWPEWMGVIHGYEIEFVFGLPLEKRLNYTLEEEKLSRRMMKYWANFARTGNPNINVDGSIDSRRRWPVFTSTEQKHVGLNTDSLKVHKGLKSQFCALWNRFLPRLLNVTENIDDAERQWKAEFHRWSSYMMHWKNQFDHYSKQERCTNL
Chain of Acetylcholinesterase (Homo sapiens) (P22303 whole entry): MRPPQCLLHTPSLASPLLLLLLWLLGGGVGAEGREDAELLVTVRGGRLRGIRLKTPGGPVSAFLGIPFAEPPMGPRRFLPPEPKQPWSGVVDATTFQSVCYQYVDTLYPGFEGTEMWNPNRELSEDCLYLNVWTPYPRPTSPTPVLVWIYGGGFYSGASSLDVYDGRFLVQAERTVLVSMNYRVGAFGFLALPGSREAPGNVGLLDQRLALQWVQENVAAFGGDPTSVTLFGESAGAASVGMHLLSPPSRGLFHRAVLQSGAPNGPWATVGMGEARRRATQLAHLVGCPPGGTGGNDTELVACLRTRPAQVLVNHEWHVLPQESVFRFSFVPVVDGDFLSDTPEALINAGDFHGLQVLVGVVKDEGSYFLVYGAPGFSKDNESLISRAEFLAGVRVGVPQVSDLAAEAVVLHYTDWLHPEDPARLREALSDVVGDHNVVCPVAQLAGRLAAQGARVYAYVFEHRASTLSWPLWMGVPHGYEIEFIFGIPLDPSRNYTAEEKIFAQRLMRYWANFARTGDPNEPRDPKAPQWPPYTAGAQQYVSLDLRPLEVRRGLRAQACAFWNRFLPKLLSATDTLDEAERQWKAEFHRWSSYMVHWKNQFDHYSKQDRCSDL

| Structure (SMILES) | IC50 (Acetylcholinesterase; read-out: IC50) [µM] | IC50 (Cholinesterase; read-out: IC50) [µM] | Ratio IC50 [1] | other results |
| --- | --- | --- | --- | --- |
| CC(C)c1ccc(NC(=O)Oc2ccc3nc4n(c(=O)c3c2)CCCN4CCCN2CCCCC2)cc1 | 0.78 | 0.25 | 3.1 |  |
| O=c1c2cc(O)ccc2nc2n1CCCN2Cc1ccccc1 |  |  |  | inhibition [2]: 41%; inhibition [3]: 40%; Activity (HT-22 [4]): Non-toxic; Activity (HT-22 [5]): Active; Activity [6]: 1.56 equiv; Activity (HT-22 [7]): Toxic |
| O=C1c2ccccc2NC2=NCCCN12 | 29.6 |  | 0.3 | inhibition [8]: 47%; Activity (HT-22 [9]): Toxic; Activity (HT-22 [10]): inactive |
| CCCCNC(=O)Oc1ccc2c(c1)CN1CCCN(C)C1=N2 | 3.13 | 1.34 | 2.31 | IC50 (Cholinesterase; read-out: pIC50 (converted)): 3.89 µM |
| CN1CCCn2c1nc1ccc(O)cc1c2=O |  |  |  | inhibition [2]: 61%; inhibition [3]: 9%; Activity (HT-22 [4]): Non-toxic; Activity [6]: 1.54 equiv; Activity (HT-22 [11]): Active |
| COc1cccc(NC(=O)Oc2ccc3c(c2)C(=O)N2CCCN=C2N3C)c1 | 2.9 | 52.2 | 0.06 |  |
| O=c1c2cc(O)ccc2nc2n1CCCN2CCCN1CCCCC1 | 22.9 | 22.7 | 1 | Activity (HT-22 [11]): inactive |
| CC(C)c1ccc(NC(=O)Oc2ccc3nc4n(c(=O)c3c2)CCCN4Cc2ccccc2)cc1 |  |  |  | inhibition [2]: 30%; inhibition [3]: 6% |
| CN1C2=NCCCN2C(=O)c2cc(OC(=O)Nc3ccc(C(C)(C)C)cc3)ccc21 | 0.2 |  | < 0.004 |  |
| CN1CCCN2Cc3cc(O)ccc3N=C12 | 15.9 |  | < 0.3 | inhibition [3]: 53%; Activity (HT-22 [4]): Non-toxic; Activity [6]: 1.34 equiv; Activity (HT-22 [12]): Active; Activity (HT-22 [11]): inactive; Activity (HT-22 [10]): inactive |
| CN1CCCn2c1nc1ccc(OCc3ccccc3)cc1c2=O | 15.6 | 81.7 | 0.21 |  |
| CC(C)c1ccc(NC(=O)Oc2ccc3nc4n(c(=O)c3c2)CCCN4C)cc1 |  | 17.7 | > 5.6 | inhibition [13]: 50% |
| COc1cccc(NC(=O)Oc2ccc3nc4n(c(=O)c3c2)CCCN4C)c1 | 5.46 | 12.6 | 0.33 |  |
| CCCCCCCNC(=O)Oc1ccc2nc3n(c(=O)c2c1)CCCN3Cc1ccccc1 | 88.8 | 25.3 | 3.51 |  |
| CN1C2=NCCCN2C(=O)c2cc(O)ccc21 | 11.8 | 55.5 | 0.21 | Activity (HT-22 [4]): Non-toxic; Activity (HT-22 [11]): inactive; Activity (HT-22 [10]): inactive |
| O=c1c2cc(OCc3ccccc3)ccc2nc2n1CCCN2Cc1ccccc1 |  |  |  | inhibition [8]: 10%; inhibition [13]: 20% |
| CCCCNC(=O)Oc1ccc2c(c1)C(=O)N1CCCN=C1N2C | 3.84 | 43.9 | 0.09 |  |

| Structure (SMILES) | IC50 (Acetylcholinesterase; read-out: IC50) [µM] | IC50 (Cholinesterase; read-out: IC50) [µM] | Ratio IC50 [1] | other results |
| --- | --- | --- | --- | --- |
| COc1cccc(NC(=O)Oc2ccc3nc4n(c(=O)c3c2)CCCN4Cc2ccccc2)c1 |  |  |  | inhibition [2]: 35%; inhibition [3]: 11% |
| O=c1c2cc(OCc3ccccc3)ccc2nc2n1CCCN2 | 19.3 |  | 0.19 | inhibition [3]: 20%; IC50 (Acetylcholinesterase; read-out: pIC50 (converted)): 19.1 µM |
| O=c1c2cc(O)ccc2nc2n1CCCN2 | 55.6 |  | 0.28 | IC50 (Acetylcholinesterase; read-out: pIC50 (converted)): 55 µM; inhibition [8]: 24%; Activity (HT-22 [7]): Toxic; Activity (HT-22 [10]): inactive |
| CCCCCCCNC(=O)Oc1ccc2c(c1)C(=O)N1CCCN=C1N2C | 3.64 | 0.14 | 26.1 |  |
| CCCCCCCNC(=O)Oc1ccc2c(c1)CN1CCCN(C)C1=N2 | 3.36 | 0.63 | 5.31 |  |
| CCCCNC(=O)Oc1ccc2nc3n(c(=O)c2c1)CCCN3Cc1ccccc1 |  |  |  | inhibition [2]: 41%; inhibition [3]: 8% |
| CC(C)c1ccc(NC(=O)Oc2ccc3nc4n(c(=O)c3c2)CCCN4)cc1 |  |  | 0.5 | inhibition [2]: 34%; inhibition [3]: 19% |
| CN1C2=NCCCN2C(=O)c2cc(OCc3ccccc3)ccc21 | 0.7 | 21.4 | 0.03 |  |
| CCCCCCCNC(=O)Oc1ccc2nc3n(c(=O)c2c1)CCCN3CCCN1CCCCC1 | 7.95 | 0.0247 | 322 | inhibition [14]: inactive; inhibition [15]: tde; Activity (HT-22 [4]): Non-toxic; K [16]: 0.125 min⁻¹; K [17]: 1.3 nM; Activity (HT-22 [10]): inactive |
| COc1cccc(NC(=O)Oc2ccc3nc4n(c(=O)c3c2)CCCN4CCCN2CCCCC2)c1 | 7.3 | 0.45 | 16.2 | IC50 (Cholinesterase; read-out: pIC50 (converted)): 25.7 µM |
| CNC(=O)Oc1ccc2c(c1)[C@]1(C)CCN(C)[C@@H]1N2C |  |  |  | K [18]: 34.3 nM; K [16]: 0.067 min⁻¹; K [19]: 0.123 min⁻¹; K [17]: 41.1 nM |
| CCCCNC(=O)Oc1ccc2nc3n(c(=O)c2c1)CCCN3CCCN1CCCCC1 | 6.91 | 1.1 | 6.35 |  |
| O=c1c2cc(OCc3ccccc3)ccc2nc2n1CCCN2CCCN1CCCCC1 | 1.31 | 0.81 | 1.6 | IC50 (Acetylcholinesterase; read-out: pIC50 (converted)): 1.35 µM |
| CCCCNC(=O)Oc1ccc2nc3n(c(=O)c2c1)CCCN3C | 16.3 | 44.3 | 0.37 |  |
| CCCCCCCNC(=O)Oc1ccc2nc3n(c(=O)c2c1)CCCN3C | 5.98 | 1.75 | 3.41 |  |
| CN1CCCN2Cc3cc(OCc4ccccc4)ccc3N=C12 | 0.826 | 4.17 | 0.2 |  |
| CC(C)c1ccc(NC(=O)Oc2ccc3c(c2)C(=O)N2CCCN=C2N3C)cc1 | 0.0837 | 3.26 | 0.03 | inhibition [14]: inactive; inhibition [20]: inactive; inhibition [21]: tde; Activity (HT-22 [4]): Non-toxic; K [18]: 43.5 nM; K [19]: 0.09 min⁻¹; inhibition [22]: Active; Activity (HT-22 [10]): inactive |
